We go through 22 molecules from paper PMC3728024, “Antidiabetic and Antioxidant Effects and Phytochemicals of Mulberry Fruit (Morus alba L.) Polyphenol Enhanced Extract” (PLoS ONE, 2013).

Where two headings read alike, the source gives them in different places. A value given as a limit tells only on which side of the number the result lay.

The nature of test [1]: DPPH radical-scavenging assay of the isolated compounds. To be noted: mean ± SD, n = 3. As to the method:
The DPPH radical-scavenging assay was performed according to a previously described method. All tests were performed in triplicate. Ascorbic acid and gallic acid were used as positive controls.
(In general: The DPPH test is a chemical assay of radical scavenging.)

Test [2] can be described thus: Superoxide anion radical-scavenging assay (NADH/PMS system). To be noted: isolated compounds; mean ± SD, n = 3. The text has this:
Superoxide radical were generated by the NADH/PMS system according to a reported protocol. Gallic acid was used as positive control.

The target in test [3] is T1, α-Glucosidase type I (EC 3.2.1.20) (Saccharomyces cerevisiae, UniProt P53341).
T1 construct: purchased Sigma-Aldrich Chemical Co. (St. Louis, MO)
Put plainly: biochemical. The text has this:
α-Glucosidase type I (EC 3.2.1.20) from baker's yeast, p-nitrophenyl α-D-glucopyranoside (PNPG), streptozotocin (STZ), were purchased from Sigma-Aldrich Chemical Co. (St. Louis, MO). […] Phenazine methosulfate was purchased from J&K Chemical Ltd. (Shanghai, China). 2,2-Diphenyl-1-picrylhdrazyl (DPPH) was product of Aladdin Chemistry Co. Ltd. (Shanghai, China). Silica gel (200–300 mesh, Anhui Liangchen Silicon Material Co. Ltd. Anhui, China), Sephadex LH-20 (Pharmacia Biothech AB, Uppsala, Sweden), and ODS (40–60 μm, Merck KGaA, Darastadt, Germany) were used for column chromatography. HPLC-grade methanol was purchased from Jiangsu Hanbang Science and Technology Co. Ltd. (Nanjing, China). All other analytical chemicals and reagents were purchased from Sinopharm Chemical Regent Co. Ltd. (Shanghai, China).
The α-glucosidase inhibitory studies were performed spectrophotometrically on 96-well microplate reader according to a reported method. […] The assay was performed in triplicate.

Where [4] appears, read: isolated compounds, mean ± SD, n = 3, read-out: IC50 α-glucosidase.

T1 sequence (P53341 whole entry): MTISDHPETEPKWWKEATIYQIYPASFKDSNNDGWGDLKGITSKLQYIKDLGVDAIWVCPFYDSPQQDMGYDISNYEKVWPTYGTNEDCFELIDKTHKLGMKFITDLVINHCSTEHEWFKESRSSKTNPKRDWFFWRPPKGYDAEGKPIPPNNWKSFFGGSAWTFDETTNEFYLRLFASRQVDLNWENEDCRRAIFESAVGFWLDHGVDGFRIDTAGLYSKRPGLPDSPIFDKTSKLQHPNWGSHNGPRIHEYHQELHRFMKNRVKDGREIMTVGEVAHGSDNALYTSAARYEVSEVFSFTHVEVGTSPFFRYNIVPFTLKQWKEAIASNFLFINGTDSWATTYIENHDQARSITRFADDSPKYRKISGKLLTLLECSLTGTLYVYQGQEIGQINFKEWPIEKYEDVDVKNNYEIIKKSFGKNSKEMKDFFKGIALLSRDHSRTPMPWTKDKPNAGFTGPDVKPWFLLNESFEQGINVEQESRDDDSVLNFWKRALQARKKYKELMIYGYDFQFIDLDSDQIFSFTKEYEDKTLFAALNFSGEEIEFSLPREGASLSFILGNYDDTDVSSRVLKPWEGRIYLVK

With `O=C(O)c1ccc(O)c(O)c1` [Compound 18, protocatechuic acid], the figures for the EC50 in test [1] and in test [2] were 11.9 ± 0.69 µM and 101 ± 8.27 µM, respectively.

For the molecule `O=c1c(O[C@@H]2O[C@H](CO)[C@@H](O)[C@H](O)[C@H]2O)c(-c2ccc(O)cc2)oc2cc(O)cc(O)c12` [Compound 7, kaempferol 3-O-β-D-glucopyranoside], the EC50 stood at 301 ± 13.8 µM in test [1] and 122 ± 5.49 µM in test [2].

With `CC(C)=CCc1c(O)ccc(C(=O)/C=C/c2ccc(O)cc2)c1O` [Compound 12, isobavachalcone], the EC50 in test [1] was > 500 µM; in test [2], 150 ± 9.1 µM. Also, the IC50 in test [3] (setting [4]) amounted to 67.3 ± 5.51 µM.

Take `O=c1c(O)c(-c2ccc(O)c(O)c2)oc2cc(O)cc(O)c12` [Compound 1, quercetin]: the EC50 in test [1] amounted to 11.9 ± 0.72 µM; in test [2] it was 27.9 ± 0.59 µM.

For the molecule `O=C1c2c(O)cc(O[C@@H]3O[C@H](CO)[C@@H](O)[C@H](O)[C@H]3O)cc2O[C@H](c2ccc(O)cc2)[C@H]1O` [Compound 11, dihydrokaempferol 7-O-β-D-glucopyranoside], the EC50 in test [1] amounted to 6.46 ± 0.39 µM; in test [2], 58.3 ± 2.39 µM. Besides, the IC50 in test [3] (setting [4]) was 933 ± 98.8 µM.

As to `CCOC(=O)c1ccc(O)c(O)c1` [Compound 21, protocatechuic acid ethyl ester], the EC50 came out at 9.04 ± 0.21 µM in test [1] and 606 ± 25.8 µM in test [2].

As for `CC(C)=CCc1c(O)ccc(C(=O)/C=C/c2ccc(O)cc2O)c1O` [Compound 13, 2,4,2′,4′,-tetrahydroxy-3′-(3-methyl-2-butenyl)-chalcone], the EC50 in test [1] was > 500 µM; in test [2] it was 191 ± 15 µM. In addition, the IC50 in test [3] (setting [4]) came to 50 ± 3.18 µM.

Regarding `C[C@@H]1O[C@@H](OC[C@H]2O[C@@H](Oc3c(-c4ccc(O)c(O)c4)oc4cc(O)cc(O)c4c3=O)[C@H](O)[C@@H](O)[C@@H]2O)[C@H](O)[C@H](O)[C@H]1O` [Compound 4, quercetin 3-O-β-D-rutinoside], the EC50 in test [1] worked out at 9.76 ± 0.61 µM; in test [2] it was 30.6 ± 0.99 µM. In addition, the IC50 in test [3] (setting [4]) turned out to be 166 ± 11.7 µM.

Turning to `O=C1C[C@@H](c2ccc(O)c(O[C@@H]3O[C@H](CO)[C@@H](O)[C@H](O)[C@H]3O)c2)Oc2cc(O)cc(O)c21` [Compound 10, 5,7,4′-trihydroxy-flavanone-3′-O-β-D-glucopyranoside], the 50% effective concentration (EC50) in test [1] stood at 222 ± 13.8 µM; in test [2] it was 194 ± 8.12 µM. Besides, the IC50 in test [3] (setting [4]) was 728 ± 67.7 µM.

As to `C[C@@H]1O[C@@H](OC[C@H]2O[C@@H](Oc3c(-c4ccc(O)cc4)oc4cc(O)cc(O)c4c3=O)[C@H](O)[C@@H](O)[C@@H]2O)[C@H](O)[C@H](O)[C@H]1O` [Compound 8, kaempferol 3-O-β-D-rutinoside], the values for the EC50 in test [1] and in test [2] were 152 ± 5.9 µM and 196 ± 7.98 µM, respectively. The IC50 in test [3] is 178.3 ± 0.35 µM.

Regarding `O=c1c(O[C@@H]2O[C@H](CO)[C@@H](O)[C@H](O)[C@H]2O)c(-c2ccc(O)c(O)c2)oc2cc(O[C@@H]3O[C@H](CO)[C@@H](O)[C@H](O)[C@H]3O)cc(O)c12` [Compound 6, quercetin 3,7-di-O-β-D-glucopyranoside], the half-maximal effective concentration (EC50) in test [1] came to 9.18 ± 0.97 µM; in test [2] it was 50.7 ± 6.7 µM. Moreover, the IC50 in test [3] (setting [4]) is 600 ± 45.9 µM.

In the case of `CC(=O)OC[C@H]1O[C@@H](Oc2c(-c3ccc(O)c(O)c3)oc3cc(O)cc(O)c3c2=O)[C@H](O)[C@@H](O)[C@@H]1O` [Compound 3, quercetin 3-O-(6′′-O-acetyl)-β-D-glucopyranoside], the EC50 in test [1] turned out to be 11.8 ± 1.04 µM; in test [2] it was 45.1 ± 1.66 µM. For the same molecule, the half-inhibitory concentration (IC50) in test [3] (setting [4]) worked out at 310 ± 12.7 µM.

For the molecule `O=C1O[C@H]([C@@H](O)CO)C(O)=C1O` [Ascorbic acid, reference compound], the EC50 was 33.5 ± 1.2 µM in test [1] and > 500 µM in test [2].

As for `COC(=O)c1ccc(O)c(O)c1` [Compound 20, protocatechuic acid methyl ester], the EC50 in test [1] was found to be 10.7 ± 0.34 µM; in test [2], 214 ± 16.9 µM.

With `O=C1C[C@@H](c2ccc(O[C@@H]3O[C@H](CO)[C@@H](O)[C@H](O)[C@H]3O)c(O)c2)Oc2cc(O)cc(O)c21` [Compound 9, 5,7,3′-trihydroxy-flavanone-4′-O-β-D-glucopyranoside], the EC50 was determined as 79.4 ± 4.74 µM in test [1] and 90.7 ± 8.28 µM in test [2]. The molecule also yielded a concentration for half-maximal inhibition (IC50) in test [3] of 409 ± 38.7 µM.

Consider `COC(=O)Cc1c(O)cc(O)cc1OC(=O)c1ccc(O)c(O)c1` [Compound 16, 2-O-(3,4-dihydroxybenzoyl)-2,4,6-trihydroxyphenylmethylacetate], for which the EC50 in test [1] came out at 10.8 ± 0.94 µM; in test [2], 37.5 ± 2.62 µM. For the same molecule, the midpoint of inhibition in test [3], the IC50, lay at 31.7 ± 3.38 µM.

`O=C(O)Cc1c(O)cc(O)cc1OC(=O)c1ccc(O)c(O)c1` [Compound 15, 2-O-(3,4-dihydroxybenzoyl)-2,4,6-trihydroxyphenylacetic acid]: the concentration giving a half-maximal response (EC50) in test [1] was found to be 7.87 ± 0.73 µM; in test [2], 15.2 ± 0.7 µM. Also, in test [3], half-maximal inhibition (IC50) required 116 ± 6.75 µM.

Take `Oc1ccccc1O` [Compound 25, pyrocatechol]: the EC50 is 6.74 ± 0.28 µM in test [1] and 45.8 ± 2.97 µM in test [2].

Regarding `O=c1c(O)c(-c2ccc(O)c(O)c2)oc2cc(O[C@@H]3O[C@H](CO)[C@@H](O)[C@H](O)[C@H]3O)cc(O)c12` [Compound 5, quercetin 7-O-β-D-glucopyranoside], the values for the EC50 in test [1] and in test [2] were 9.8 ± 0.53 µM and 24.6 ± 1.67 µM, respectively. For the same molecule, it took 370 ± 31.2 µM to reach half-maximal inhibition in test [3] (IC50).

In the case of `O=c1c(O[C@@H]2O[C@H](CO)[C@@H](O)[C@H](O)[C@H]2O)c(-c2ccc(O)c(O)c2)oc2cc(O)cc(O)c12` [Compound 2, quercetin-3-O-β-D-glucopyranoside], in test [1], the EC50 was found to be 7.89 ± 0.5 µM. Moreover, in test [3] (setting [4]), the IC50 is 165 ± 11.6 µM.

Take `OCCc1ccc(O)cc1` [Compound 24, 2-(4-hydroxyphenyl)ethanol]: the EC50 in test [1] is > 500 µM; in test [2] it was 417 ± 23.9 µM.

As to `C=C(C)C1Cc2c(ccc(C(=O)/C=C/c3ccc(O)cc3)c2O)O1` (stereo not drawn) [Compound 14], the results for the EC50 in test [1] and in test [2] were > 500 µM and 175 ± 9.72 µM, respectively. In test [3], this molecule gave an IC50 of 225 ± 4.79 µM.

One may read the EC50 as the midpoint of the concentration-response curve. Read a low EC50 as greater potency. By IC50 is commonly meant the concentration that gives 50% inhibition.
